In patent US20260048155A1, “BIOCOMPATIBLE PARAHYDROGEN HYPERPOLARIZED SOLUTIONS BY PRECIPITATION AND RE-DISSOLUTION” (North Carolina State University, priority 2022, published 2026):

Columns and labels:
[1] = Re-dissolution (Re-D) SABRE: precipitation with ethyl acetate, re-dissolution in water, phase separation at different magnetic fields; assay type: physicochemical
Description: To investigate the precipitation and re-dissolution of HP [1-^13C]pyruvate, a phase separation approach was applied, FIGS. 5A-5B. To this end, the fact that water and EtAc are immiscible was exploited to modify the setup and procedure accordingly. In this approach, the precipitation was performed in the same NMR tube where hyperpolarization took place. 400 μL EtAc were added quickly to the sample consisting of 100 μL of 30 mM HP [1-^13C]pyruvate, right after removing this sample from the 0.4 μT field and releasing the pressure (≈3-4 s). To mix the solution after EtAc addition, further p-H2 bubbling was used at a low flow rate (˜5-10 scc/m, ambient pressure), FIGS. 5A-5B. For re-dissolution, 300 μL water were added directly to the NMR tube with the precipitate-containing solution, and again, gas flow was used to mix and dissolve the pyruvate microcrystals. After mixing the solutions, most of the aqueous phase rapidly separated from the organic phase (≈1 s). Typical precipitation time was tprec≈2 s and water addition time twater≈6 s, where twater consisted of 1 s to add water, plus 4 s to bubble gas, and 1 s to settle the solution, FIGS. 5A-5B (see FIG. 17 for more information). […] Using this protocol, the obtained two-phase samples visibly contained a major fraction of the catalyst in the organic phase (which remained yellowish and turned reddish after exposure to atmosphere, FIG. 15), whereas a clear aqueous solution of total volume of ≈335±10 μL was obtained (as detailed below approximately half of the CH3OH remained in the aqueous phase), FIGS. 14A-14B. The total volumes of the investigated mixtures containing the precipitate were approximately 500 μL (3.9 cm fill height in the NMR tube), and after the addition of water the total fluid volume was ≈800 μL (≈6 cm fill height). During the phase mixing, parts of the sample were lifted by approximately 5 cm by the ascending p-H2 gas bubbles. The sample height in the NMR tube was the decisive factor affecting the choice of solvent volumes to minimize the mixtures from leaving the 1.4 T field of the benchtop NMR spectrometer (approximately 10 cm along the sample tube) as much as possible. […] These limitations are clear shortcomings of the current experimental design and can be remedied in the future with purpose-built hyperpolarization equipment.
This separation approach was investigated at 4 different magnetic fields: (i) Earth's field; (ii) 10 mT; (iii) 0.3 T; and (iv) 1.4 T, FIGS. 6A-6B. More details on the experiment setups are reported in the SI. Re-D SABRE was performed at (i)-(iv), and the samples were then rapidly transferred to the benchtop 1.4 T NMR, such that the aqueous phase was approximately centered in the radiofrequency coil. In case (iv), for which no transfer was needed, a ≈5-s delay was added to the end of the protocol for consistency with the time needed to transfer the samples in (i-iii).
The detection and quantification of hyperpolarization took place at 1.4 T in all cases.
A more rigorous phase mixing protocol was tested, where the bubbling tube was moved up and down rapidly three times for phase mixing during the twater≈6 s mixing time. […] Considering the final volume of the aqueous phase of 335±10 μL and the measured pyruvate concentration of 5.8±0.8 mM (in the diluted Re-D SABRE sample), the detected ^13C signals corresponded to a nuclear polarization of P13C=9±1% or 8±1%, i.e., ε13C of ≈75,000 at 1.4 T, respectively, N=2 samples, FIGS. 7A-8B. […]

[2] = 30 mM pyruvate, prior SABRE-SHEATH work (background); cited from earlier work

CC(=O)[13C](=O)O [[1-^13C]pyruvate]
ε13C after Re-D SABRE ([1]; aqueous phase, at 1.4 T): ≈ 75,000 | P13C after Re-D SABRE ([1]; precipitation and re-dissolution at 0.3 T, N=2, aqueous phase): 4.0±0.8% | P13C after Re-D SABRE ([1]; precipitation and re-dissolution at 1.4 T, N=3, aqueous phase): 3.6±0.6% | P13C after Re-D SABRE ([1]; precipitation and re-dissolution at 10 mT, aqueous phase, detected at 1.4 T): 0.05±0.02% | HP 13C signal after Re-D SABRE ([1]; precipitation and re-dissolution at Earth's field, detected at 1.4 T): No HP ^13C signal was observed | P13C in the free state [2]: 13%
